Tested on: psoriasis
Assay: Topical treatment of a person suffering from psoriasis
Format: in vivo
Settings: 0.1% Protopic ointment twice a day plus 0.1% tazarotene (Tazorac) once a day in the same person; compared with 0.1% tazarotene alone once a day or 0.1% tacrilomus alone twice a day
Description: A composition according to one of examples 1-3 is administered topically once a day to person suffering from psoriasis.
Tacrilomus is administered twice a day as 0.1% Protopic® ointment to a person suffering from psoriasis. The same person receives 0.1% tazarotene as Tazorac® ointment once a day.

With `C=CC[C@@H]1/C=C(\C)C[C@H](C)C[C@H](OC)[C@H]2O[C@@](O)(C(=O)C(=O)N3CCCC[C@H]3C(=O)O[C@H](/C(C)=C/[C@@H]3CC[C@@H](O)[C@H](OC)C3)[C@H](C)[C@@H](O)CC1=O)[C@H](C)C[C@@H]2OC` [Tacrilomus, tacrolimus] the “Improvement of symptoms (efficacy)” value was “greater efficacy” and the side effects was “fewer side effects”.

— patent US20060211726A1, “Ascomycin derivatives for combination treatment with tazorotene” (priority 2005, published 2006)
